Entries after “also recorded” stand apart in the source; their conditions may differ. Where a SMILES comes first, the peptide text is derived from it. Bridges are numbered along the chain shown (N, C = ends). [ ]: non-standard residue; d: D form. dTic = O=C(O)[C@H]1Cc2ccccc2CN1; Cha = N[C@@H](CC1CCCCC1)C(=O)O
Tests used:
hNpr1 = target: T1, hNpr1 (Homo sapiens, UniProt P16066); experiment: GloSensor assay in 96-well format, HEK-hNpr1-cGMP-sensor cells; format: cell-based; settings: 5 μM antagonist, increasing hNppa; GloSensor and membrane cyclase assays (FIGS. 5B-C)
T1 sequence (P16066 33-1061): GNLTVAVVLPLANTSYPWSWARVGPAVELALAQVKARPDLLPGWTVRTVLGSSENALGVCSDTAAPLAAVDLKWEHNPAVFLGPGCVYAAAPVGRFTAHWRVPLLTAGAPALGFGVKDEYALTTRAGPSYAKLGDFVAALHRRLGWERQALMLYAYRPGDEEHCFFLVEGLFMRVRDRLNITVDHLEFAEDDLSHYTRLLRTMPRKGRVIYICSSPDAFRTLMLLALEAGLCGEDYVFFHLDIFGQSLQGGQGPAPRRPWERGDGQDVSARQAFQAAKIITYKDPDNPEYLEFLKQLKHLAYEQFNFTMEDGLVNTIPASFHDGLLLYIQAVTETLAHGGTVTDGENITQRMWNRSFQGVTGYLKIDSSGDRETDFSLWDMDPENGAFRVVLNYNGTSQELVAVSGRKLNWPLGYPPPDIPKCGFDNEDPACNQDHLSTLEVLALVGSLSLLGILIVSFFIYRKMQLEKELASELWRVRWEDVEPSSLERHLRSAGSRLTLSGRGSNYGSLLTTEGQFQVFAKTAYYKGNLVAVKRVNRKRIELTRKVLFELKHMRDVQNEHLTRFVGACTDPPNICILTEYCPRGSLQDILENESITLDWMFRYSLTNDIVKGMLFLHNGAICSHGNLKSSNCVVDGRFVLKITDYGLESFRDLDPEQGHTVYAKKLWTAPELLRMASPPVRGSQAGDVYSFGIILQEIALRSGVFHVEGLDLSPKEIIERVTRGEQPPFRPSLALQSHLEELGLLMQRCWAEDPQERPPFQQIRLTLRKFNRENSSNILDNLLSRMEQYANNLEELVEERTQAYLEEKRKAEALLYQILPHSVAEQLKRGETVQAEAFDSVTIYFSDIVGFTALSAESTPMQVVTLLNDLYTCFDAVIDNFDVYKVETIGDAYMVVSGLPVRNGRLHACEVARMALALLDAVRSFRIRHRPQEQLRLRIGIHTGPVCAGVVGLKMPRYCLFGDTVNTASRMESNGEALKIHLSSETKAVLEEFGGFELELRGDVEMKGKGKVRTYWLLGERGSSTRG
Experimental: (§1) Before the measurement (24 hours in advance), 3×10^4 cells were seeded into white 96-well plates (PerkinElmer, Waltham, Mass.), coated with 0.1% poly(D-lysine), and assays conducted as recommended by the manufacturer (Promega). Medium was aspirated and cells were loaded for two hours at room temperature with 2% GoSensor™ reagent diluted in CO2-independent media (ThermoFisher) supplemented with 2 mM L-glutamine and 10% FBS (assay medium). Luminescence was measured on a BioTek Synergy™ NEO (Winooski, Vt.) plate reader at room temperature. After a baseline measurement of 3-5 minutes, assay medium as a control or assay medium with agonist was manually added, and luminescence was measured for 30 minutes at ˜ 1/60 Hz. For compounds tested for Npr1 and Npr2 inhibition, the compounds were added after baseline measurements, and luminescence was read for 5 minutes before addition of agonist. Luminescence was then normalized to baseline measurements and plotted against the time. Ligand-induced changes of cGMP production were quantified by determining the area under the curve. To determine efficacy and potency of agonists, ligand-induced changes were normalized to medium only addition and plotted against the ligand concentration. […] To quantify […] of compounds, compound-induced changes of agonist-induced cGMP production were normalized to vehicle controls, plotted against compound concentration, and fit with a four-parameter logistic regression. Effects of A-71915 on basal mNpr1 activity were fitted with a bell-shaped regression (equation indicated below).
Additional screens of the fifteen candidates corroborated hNpr1 inhibition. In particular, HEK-hNpr1-cGMP-sensor cells were seeded in 96-wells and stimulated with 60 pM hNppa 5 minutes after addition of candidate compounds or A-71915 and luminescence was measured for 30 minutes. Inhibitors were titrated to calculate apparent potency (IC50) and efficacy (Imax) of inhibition of hNppa-induced cGMP production.

mice = settings: reported; cited from earlier work
mNpr1 = target: T2, mNpr1 (Mus musculus, UniProt P18293); experiment: GloSensor assay, HEK-293 cells transiently expressing mNpr1 and pGS-40F; format: cell-based; settings: no agonist
T2 construct: host or cells: HEK-293, transient co-transfection with pGS-40F
T2 sequence (P18293 29-1057): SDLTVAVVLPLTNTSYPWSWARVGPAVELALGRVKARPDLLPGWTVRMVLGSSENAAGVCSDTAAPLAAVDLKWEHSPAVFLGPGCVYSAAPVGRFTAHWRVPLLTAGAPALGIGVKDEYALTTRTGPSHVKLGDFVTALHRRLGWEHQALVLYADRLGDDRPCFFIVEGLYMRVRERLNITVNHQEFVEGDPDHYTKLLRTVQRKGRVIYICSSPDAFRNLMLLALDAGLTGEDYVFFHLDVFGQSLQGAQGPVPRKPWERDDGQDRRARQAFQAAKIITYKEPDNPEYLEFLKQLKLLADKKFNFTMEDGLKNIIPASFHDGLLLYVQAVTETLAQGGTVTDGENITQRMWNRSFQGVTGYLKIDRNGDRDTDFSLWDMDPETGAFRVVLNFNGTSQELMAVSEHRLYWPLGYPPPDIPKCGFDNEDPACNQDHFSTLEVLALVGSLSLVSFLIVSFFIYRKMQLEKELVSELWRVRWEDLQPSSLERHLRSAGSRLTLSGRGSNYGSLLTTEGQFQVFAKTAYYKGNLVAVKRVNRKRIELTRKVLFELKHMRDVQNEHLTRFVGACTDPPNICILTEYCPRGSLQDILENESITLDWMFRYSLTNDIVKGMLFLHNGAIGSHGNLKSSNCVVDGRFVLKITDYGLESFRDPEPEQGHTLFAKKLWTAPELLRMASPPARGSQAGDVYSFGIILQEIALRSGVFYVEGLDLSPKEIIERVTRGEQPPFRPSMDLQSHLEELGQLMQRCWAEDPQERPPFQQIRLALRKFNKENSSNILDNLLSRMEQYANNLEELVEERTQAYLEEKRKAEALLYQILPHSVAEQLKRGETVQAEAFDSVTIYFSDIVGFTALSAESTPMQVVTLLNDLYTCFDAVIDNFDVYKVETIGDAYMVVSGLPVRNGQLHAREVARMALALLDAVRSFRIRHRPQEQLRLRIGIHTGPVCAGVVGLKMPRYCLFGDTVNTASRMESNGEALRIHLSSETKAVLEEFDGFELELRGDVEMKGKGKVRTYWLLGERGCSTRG
Experimental: HEK-293 cells (American Type Culture Collection “ATTC,” Manassas, Va.) were cultured in DMEM/F12 supplemented with 2 mM L-glutamine, 10% FBS, 100 U/ml penicillin, and 100 μg/ml streptomycin. For transient expression, 8×10^5 cells were seeded in 6-wells, cultured for 24 hours, and then transfected using TransIT®-293 (Mirus, Madison, Wis.) according to the manufacturer's instructions. After transfection (48 hours), cells were used to measure intracellular cGMP production. HEK-293 cell clones stably expressing pGloSensor™-40F alone (HEK-cGMP-sensor cells) or in addition, human Npr1 (“hNpr1”) (HEK-hNpr1-cGMP-sensor cells) or human Npr2 (HEK-hNpr2-cGMP-sensor cells) were generated by co-transfection with pEAK8-GFP and selection with 1 μg/ml puromycin. Stable expression of transgenes was verified by measuring ligand-induced cGMP production with the cGMP biosensor.
as §1
Because the Npr1 receptor is a ligand-dependent guanylate cyclase, measuring agonist-induced changes in intracellular cGMP levels was used to examine inhibition of Npr1. To measure the production of cGMP by Npr1, a circular permutated Firefly luciferase molecule which was functionally linked to the cGMP binding domain of human PDE5 (GloSensor™ technology pGS-40F) was used, as described in Example 1. This reporter molecule together with a luciferase substrate (GoSensor™ reagent) and a sensitive method for detection of luciferase activity (emitted light) permitted real-time measurement of cGMP levels in live cells (FIG. 1A). The cGMP sensor was expressed in HEK293 cells and luciferase activity after stimulation with the NO-donor sodium nitroprusside (SNP), which activates ubiquitously expressed soluble guanylate cyclases, was examined. […] Next, mNpr1 and the cGMP sensor were transiently expressed in HEK293 cells and agonist dependent receptor activation was examined. […] Next, the effects of A-71915 on mNpr1 were tested.
For Table 6, HEK-293 cells transiently expressing mNpr1 and pGS-40F were stimulated with 1 nM mNppb 5 minutes after addition of candidate compounds or A-71915 and luminescence was measured for 30 minutes. Inhibitors were titrated to calculate apparent IC50 values, as described in methods.

| Molecule | Effect on hNppa concentration-response at fixed antagonist concentration (hNpr1) | Block of acute itch responses elicited by intradermal pruritogens (mice) | Effect on basal mNpr1 activity in the absence of natriuretic peptides (mNpr1) |
| --- | --- | --- | --- |
| 1-cyclohexyl-3-(cyclopropylmethyl)-N-((3-methylisoxazol-5-yl)methyl)-2-oxo-2,3-dihydro-1H-benzo[d]imidazole-5-carboxamide [JS-11] | reduced maximal responses even at extremely high hNppa concentrations | – | – |
| CC[C@H](C)[C@@H]1NC(=O)[C@H](CCCNC(=N)N)NC(=O)CNC(=O)CNC(=O)[C@H](CC2CCCCC2)NC(=O)[C@@H](NC(=O)[C@@H](N)CCCNC(=N)N)CSSC[C@@H](C(N)=O)NC(=O)[C@H](CCCNC(=N)N)NC(=O)[C@H]2Cc3ccccc3CN2C(=O)[C@H]([C@@H](C)CC)NC(=O)[C@H](CCCNC(=N)N)NC(=O)[C@H](CC(=O)O)NC1=O [Compound A-71915, reference compound] (H-RC[Cha]GGRIDRI[dTic]RC-NH2; disulfide 2-13; N-terminus and C-terminus assumed) | right-shift in hNppA potency without any effect on maximal efficacy | does not block acute itch responses | partial agonist; also recorded: directly stimulates basal mNpr1 activity |
